Where two headings read alike, the source gives them in different places.
What was measured:
primary cortical neurons = test: cells; format: cell-based, mouse; conditions: for Protection against hemin-induced toxicity (in words): MTT
Description: Primary cortical neuronal cultures: Primary cortical neurons were collected from embryonic (E15) CD1 mice. The cortices of the mice were dissected, homogenized, and plated in minimum essential medium containing 10% fetal bovine serum (FBS), 5% horse serum, and 1% penicillin/streptomycin in 96-well plates, 6-well plates, or 10-cm dishes. The neurons were maintained at 37° C. with 5% CO2. All experiments were conducted 24 hours after plating.
In vitro ICH model: Ferroptosis is a type of programmed cell death that is dependent on iron, and is characterized by the accumulation of lipid peroxides. Ferroptosis is genetically and biochemically distinct from other forms of regulated cell death such as apoptosis. Ferroptosis is initiated by the failure of the glutathione-dependent antioxidant defenses, resulting in unchecked lipid peroxidation and eventual cell death.
Cell death was induced in primary cortical neurons by treating the neurons with hemin, a blood breakdown product. For the neuroprotection studies, cells were treated with hemin (100 μM) in the presence of NAC (0.1 mM to 1mM), 6-hydroxy-2,5,7,8-tetramethylchroman-2-carboxylic acid (trolox; 0.1 μM to 100 μM), β-carotene (0.1 μM to 100 μM) α-lipoic acid (0.01 mM to 2 mM), glutathione ethyl ester (1 mM to 10 mM), oxothiazolidine-4-carboxylate (1 mM to 10 mM), cystamine (0.1 μM to 10 μM), or nordihydroguaiaretic acid (0.1 μM to 10 μM). Cell viability was analyzed 24 h after treatment. The cells were rinsed with warm phosphate-buffered saline (PBS) and assessed using an MTT assay. The fidelity of the MTT assays in measuring viability was verified by calcein-AM/ethidium homodimer-1 staining (Live/Dead assay).
The ability of NAC to protect cells was investigated in a hemin model of hemorrhagic stroke. The in vitro model of ICH involved the administration of hemin, a breakdown product of hemoglobin from lysed blood, to trigger cell death. Treatment of primary cortical neurons with 100 μM hemin induced widespread cell death through a ferroptotic mechanism, which was quantified with MTT and qualitatively observed using live/dead staining. Living cells were labeled with calcein-AM, and dead cells were labeled with ethidium homodimer. […] Scale bars: 100 μm.
A systematic pharmacological screening of oxidized lipid species inhibitors in the context of hemin-induced cell death was performed in primary cortical neurons. Primary cortical neurons were co-treated with hemin and a non-specific or enzymatic lipid peroxidation inhibitor. The MTT assays were performed 18 h following the co-treatment.

[1] = tested on: collagenase-induced mouse model of ICH; test: In vivo collagenase-induced mouse model of ICH (Fluoro-Jade staining, corner task, adhesive tape removal task, hematoma size)
Description: In vivo collagenase-induced mouse model of ICH: Male C57BL/6 mice (8 to 10 weeks of age) or mice (10 to 12 weeks of age) were anesthetized with isoflurane (2% to 5%) and placed on a stereotaxic frame. During the procedure, the animal's body temperature was maintained at 37° C. with a homeothermic blanket. 1 mL of collagenase (0.075 IU) was infused into the right striatum at a flow rate of 0.120 μL/min using a Nanomite® syringe pump and a syringe. Relative to the bregma point, the stereotaxic coordinates of the injection were: lateral, −0.20; anteroposterior, 0.62; and dorsoventral, −0.40. In control animals, 1 mL of saline was infused. The treatment group received NAC (75 mg/kg or 300 mg/kg in normal saline, I.P.) once a day for 7 days starting at 2 h after collagenase infusion. For combinatorial studies, NAC (40 mg/kg, I.P.) and PGE 2 (10 μM, ICV) were administered to the mice 2 h after the collagenase injection, and then NAC (40 mg/kg) was administered once daily for 7 days. The control groups received the vehicle (normal saline) alone. The animals were randomized to sham or ICH groups. The identities of the mice that received vehicle or NAC were masked to surgeons who performed the experiments. […] Proper postoperative care was provided until the animals recovered completely.
Behavioral analysis: The corner task assessed integrated sensorimotor function in the stimulation of vibrissae (sensory neglect) and rearing (motor response). Mice were placed between two cardboard pieces that formed a corner with a 30° angle. While maintaining the 30° angle, the boards were gradually moved toward the mouse until the mouse approached the corner, reared upward, and turned 180° to face the open end. The direction (left or right) in which the mouse turned was recorded for each trial. Ten trials were performed for each mouse.
For the sensory neglect task (adhesive tape removal task), adhesive tape was placed on the planter region of the forward paw (right and left) of each mouse. The time from which the tape was applied to when the mouse successfully removed the tape was recorded for each paw. A maximum of 300 s for each paw was allowed.
Fluoro-Jade® B staining: Neurodegeneration of cells was assessed in mice with collagenase-induced ICH using Fluoro-Jade® B staining. 40 μM brain sections were mounted on gelatin-coated slides and dried at room temperature overnight. The sections were immersed in a graded series of alcohol solutions before being immersed in a 0.06% potassium permanganate (KMnO4) solution for 15 min. Sections were washed with water before being immersed in a 0.001% Fluoro-Jade® staining solution with gentle shaking in the dark for 30 min. The sections were then washed with water and dried overnight at room temperature in the dark before being dehydrated and coverslipped with DPX. Fluoro-Jade® B staining was examined within perihematoma or hematoma regions using a fluorescence microscope. Quantification of Fluoro-Jade® B staining was performed using three brain sections (anterior to posterior of hematoma) using Metamorph analysis.
The vehicle or NAC was then administered daily up to 7 days following the ictus. Neuronal loss was determined using a non-specific marker of neurodegeneration, Fluoro-Jade® staining. […] Mouse behavior was assessed using a corner task (spatial neglect) and an adhesive tape removal task (sensory neglect). Mouse behavior was assessed on day 1, 3, and 7 after the induction of ICH.

recombinant ALOX5 = target: T1, recombinant ALOX5 (Homo sapiens, UniProt P09917); test: Lipoxygenase UV/Vis-based IC50 assay with recombinant ALOX5; format: biochemical; conditions: test tube assay
T1 sequence (P09917 1-674): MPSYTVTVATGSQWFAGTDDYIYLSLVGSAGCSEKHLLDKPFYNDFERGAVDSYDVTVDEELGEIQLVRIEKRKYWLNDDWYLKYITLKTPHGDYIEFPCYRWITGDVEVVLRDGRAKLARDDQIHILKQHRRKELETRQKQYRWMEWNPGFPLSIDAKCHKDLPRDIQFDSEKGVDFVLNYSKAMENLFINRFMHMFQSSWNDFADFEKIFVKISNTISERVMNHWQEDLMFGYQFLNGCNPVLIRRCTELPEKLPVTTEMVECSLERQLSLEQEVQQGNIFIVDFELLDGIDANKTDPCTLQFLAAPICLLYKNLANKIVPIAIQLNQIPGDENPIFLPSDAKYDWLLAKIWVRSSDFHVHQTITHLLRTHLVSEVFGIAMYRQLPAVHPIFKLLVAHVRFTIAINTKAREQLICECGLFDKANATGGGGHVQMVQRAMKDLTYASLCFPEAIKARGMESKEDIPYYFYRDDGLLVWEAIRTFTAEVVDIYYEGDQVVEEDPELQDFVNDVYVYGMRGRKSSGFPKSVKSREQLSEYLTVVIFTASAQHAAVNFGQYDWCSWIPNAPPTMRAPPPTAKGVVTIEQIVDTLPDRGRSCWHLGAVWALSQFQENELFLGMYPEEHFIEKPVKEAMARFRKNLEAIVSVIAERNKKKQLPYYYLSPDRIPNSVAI
Description: Lipoxygenase UV/Vis-based IC50 assay: Inhibition potencies were determined by following the formation of conjugated diene products, 5-HpETE [ε=27000 M^−1 cm^−1 for AA turnover) at 234 nm using a UV/Vis spectrophotometer. All reaction mixtures were 2 mL in volume, and the reaction mixtures were constantly stirred using a magnetic stir bar at room temperature (23° C.). All reactions were carried out in a buffer containing 200 μM ATP and 10 μM AA. The AA concentration of a sample was verified by full turnover with soybean-1 lipoxygenase and quantifying the product concentration. Inhibitors were stored in DMSO at −20° C. Enzymatic reactions were initiated by adding approximately 100 nM-300 nM ammonium sulfate-precipitated wildtype enzyme. IC50 values were obtained by determining the enzymatic rate at a minimum of five inhibitor concentrations, plotting the enzymatic rate against inhibitor concentration, and performing a hyperbolic saturation curve fit. Inhibitor concentrations were assayed in duplicate or triplicate.
Significance was determined by two-way ANOVA and Bonferroni's post hoc test.

lipid protein adducts = test: Hemin-induced lipid protein adduct formation (Bt-AA, streptavidin-HRP Western blot) in primary neurons; format: cell-based, mouse; conditions: for AA-protein adduct formation: non-protective doses: NAC 0.1 mM, vitamin E 1 μM, zileuton 1 μM; for Lipid protein adduct formation: protective doses: NAC 1 mM, vitamin E 10 μM, zileuton 10 μM
Description: Electrophilic attack by ALOX5 products could alter cellular protein-mediated signaling to trigger cell death. Arachidonic acid (AA) tagged with biotin (Bt-AA) was used to monitor the formation of covalent protein adducts. To test whether hemin was sufficient to catalyze the formation of protein-reactive lipid species, primary neurons were treated with hemin at concentrations of 5 μM-50 μM for 4 h. Lipid protein adducts were detected by Western blots probed with Streptavidin-HRP. Bt-AA incorporation into protein increased with increasing concentrations of hemin, and significant lipid protein adducts were detected at 50 μM hemin. […] The blot is representative from replicates of three experiments. The arrow indicates the decrease in lipid protein adduct formation.

[2] = primary cortical neurons, 100 μM hemin
[3] = Mus musculus, Primary cortical neuron, protection from 100 μM hemin, MTT (Table 2), read-out: EC50
[4] = protection from 100 μM hemin, MTT (Table 2), read-out: EC50
[5] = NAC 40 mg/kg i.p. and/or PGE2 10 μM ICV, days 1, 3, 7

In the case of `CC(=O)Oc1ccccc1C(=O)O` [Aspirin], the “Protection against hemin-induced toxicity (in words)” value (“Protection … (in words)” for short) (primary cortical neurons; [2]) is reported as “failed to protect against hemin toxicity”.

For `CCCCS(=N)(=O)CCC(N)C(=O)O` (centres unmarked) [BSO, buthionine sulfoximine], the “Effect on NAC-induced protection from hemin” value (primary cortical neurons; co-treatment with NAC and BSO) was “reversed NAC-induced protection”.

For `CC(=O)N(O)C/C=C/c1cccc(Oc2ccccc2)c1` [BW A4C], the EC50 (primary cortical neurons; 100 μM hemin, primary cortical neurons, read-out: EC50 for reduction of hemin-induced toxicity/ferroptosis) was 5 µM.

For `CC(C=Cc1cccc(Oc2ccc(F)cc2)c1)N(O)C(N)=O` (centres unmarked) [BW B70], the “Protection … (in words)” value (primary cortical neurons; [2]) was “significantly reduced hemin-induced toxicity”.

In the case of `NCCSSCCN` [Cystamine], the EC50 (primary cortical neurons; [3]) is reported as 7.5 µM and the “Protection … (in words)” value (primary cortical neurons; [2]) is reported as “prevented hemin-induced death as effectively as NAC”.

In the case of `CCOC(=O)CNC(=O)[C@H](CS)NC(=O)CC[C@H](N)C(=O)O` [Glutathione ethyl ester], the “Protection … (in words)” value (primary cortical neurons; [2]) is reported as “prevented hemin-induced death as effectively as NAC” and the EC50 (primary cortical neurons; [4]) is reported as 2500 µM.

With `COc1ccc2c(c1)c(CC(=O)O)c(C)n2C(=O)c1ccc(Cl)cc1` [Indomethacin] the “Protection … (in words)” value (primary cortical neurons; [2]) was “failed to protect against hemin toxicity”.

For `C#CCOc1ccccc1CCCCCC(=O)NS(C)(=O)=O` [MS-PPOH], the “Protection … (in words)” value (primary cortical neurons; [2]) was “failed to protect against hemin toxicity”.

In the case of `CCC(=O)NC(c1cccs1)c1cc([N+](=O)[O-])c2cccnc2c1O` (centres unmarked) [NCTT-956], the “Protection … (in words)” value (primary cortical neurons; [2]) is reported as “failed to protect against hemin toxicity”.

In the case of `CC(Cc1ccc(O)c(O)c1)C(C)Cc1ccc(O)c(O)c1` (centres unmarked) [Nordihydroguaiaretic acid], the EC50 (primary cortical neurons; [3]) is reported as 5 µM and the “Protection … (in words)” value (primary cortical neurons; [2]) is reported as “prevented hemin-induced death as effectively as NAC”.

In the case of `O=C1NC(C(=O)O)CS1` (centres unmarked) [Oxothiazolidine-4-carboxylate], the “Protection … (in words)” value (primary cortical neurons; [2]) is reported as “prevented hemin-induced death as effectively as NAC” and the EC50 (primary cortical neurons; [4]) is reported as 2500 µM.

With `c1ccc2c(c1)SCc1c-2[nH]c2ccccc12` [PD146176] the “Protection … (in words)” value (primary cortical neurons; [2]) was “failed to protect against hemin toxicity”.

With `CCCCC[C@H](O)/C=C/[C@H]1[C@H](O)CC(=O)[C@@H]1C/C=C\CCCC(=O)O` [PGE2, prostaglandin E2] the “Sensory neglect (adhesive tape removal task) behavioral deficits” value [1, 5] was “no effect” and the “Spatial neglect (corner task) behavioral deficits” value [1, 5] was “no effect”.

In the case of `CC(c1cc2ccccc2s1)N(O)C(N)=O` (centres unmarked) [Zileuton], the EC50 (primary cortical neurons; Mus musculus, Primary cortical neuron, 100 μM hemin, primary cortical neurons, read-out: EC50 for reduction of hemin-induced toxicity/ferroptosis) is reported as 7 µM, the “Inhibition of ALOX5 activity” value (recombinant ALOX5) is reported as “effective in inhibiting ALOX5” and the AA-protein adduct formation (lipid protein adducts) is reported as “did not decrease AA-protein adduct formation”. The “Lipid protein adduct formation” value (lipid protein adducts) was “decreased lipid protein adduct formation”.

With `CCCCC(C)(C)[C@H](O)/C=C/[C@H]1[C@H](O)CC(=O)[C@@H]1C/C=C\CCCC(=O)O` [dmPGE2, 16,16-dimethyl PGE2] the “Neuronal degeneration in perihematomal regions (Fluoro-Jade staining)” value ([1]; NAC 40 mg/kg i.p. daily 7 days and/or dmPGE2 10 μM ICV 2 h post-injury) was “no significant effect” and the “Protection … (in words)” value (primary cortical neurons; [2]) was “dose-dependently abrogated hemin-induced toxicity”.

In the case of `Cc1c(C)c2c(c(C)c1O)CCC(C)(C(=O)O)O2` (centres unmarked) [trolox, 6-hydroxy-2,5,7,8-tetramethylchroman-2-carboxylic acid], the “Protection … (in words)” value (primary cortical neurons; [2]) is reported as “abrogated hemin-induced toxicity in a dose-dependent manner”.

In the case of `Cc1c(C)c2c(c(C)c1O)CC[C@@](C)(CCC[C@H](C)CCC[C@H](C)CCCC(C)C)O2` [vitamin E, α-tocopherol], the AA-protein adduct formation (lipid protein adducts) is reported as “did not decrease AA-protein adduct formation” and the “Lipid protein adduct formation” value (lipid protein adducts) is reported as “decreased lipid protein adduct formation”.

`O=C(O)CCCCC1CCSS1` (stereo not drawn) [α-Lipoic acid, α-lipoic acid] was tested, and the “Protection … (in words)” value (primary cortical neurons; [2]) was “failed to prevent hemin toxicity at any dose examined”.

With `CC1=C(/C=C/C(C)=C/C=C/C(C)=C/C=C/C=C(C)/C=C/C=C(C)/C=C/C2=C(C)CCCC2(C)C)C(C)(C)CCC1` [β-carotene] the “Protection … (in words)” value (primary cortical neurons; [2]) was “protected against hemin-induced toxicity” and the “Inhibition of ALOX5 activity” value (recombinant ALOX5) was “did not inhibit ALOX5 activity”.

With Hemin the “% Viability” value (primary cortical neurons) was 50.14% and the EC50 (primary cortical neurons; hemin itself (toxic stimulus), Table 2 EC50 column, read-out: EC50) was 100 µM.

Source: patent US11963939B2, “Use of N-acetylcysteine to treat central nervous system disorders” (Neuronasal, Inc., priority 2017, dated 2024)
